Results reported in patent publication US8124623B2, “5-hydroxymethyl-oxazolidin-2-one-derivatives and their uses as antibacterials” (Actelion Pharmaceuticals Ltd., priority 2006, dated 2012).
In brackets after ≈: the same amount, converted by molar mass.

Tests used:
[1] = test system: Bacteroides fragilis A-992 ATCC 25285; assay: MIC, particular anaerobic bacterial strains; format: cell-based; conditions: ATCC25285
[2] = test system: Bacteroides thetaiotaomicron A-990 ATCC 29741; assay: microbe, parasite or virus in culture; format: cell-based; conditions: ATCC29741
[3] = test system: Eubacterium limosum A-1259 DSM 20698; assay: MIC, particular anaerobic bacterial strains; format: cell-based
[4] = test system: Finegoldia magna A-1254 DSM 20470; assay: MIC, particular anaerobic bacterial strains; format: cell-based
[5] = test system: Lactobacillus acidophilus A-1255 DSM 20079; assay: MIC, particular anaerobic bacterial strains; format: cell-based
[6] = test system: Lactococcus lactis A-1256 DSM 20069; assay: MIC, particular anaerobic bacterial strains; format: cell-based
[7] = test system: C. difficile strain NC13366; format: cell-based; conditions: 1 and 8 μg/mL, day 5 vs day 1, high density stationary phase cultures
[8] = test system: C. difficile strain NC13366; format: cell-based; conditions: treated cultures compared to the untreated control, day 5
[9] = test system: toxigenic C. difficile strain 10465; assay: C. difficile hamster model; format: in vivo, Golden Syrian hamsters
Method: Golden Syrian hamsters were given a single injection of clindamycin phosphate (10 mg/kg s.c.), and a day later animals were infected by gavage with 10^5 CFU of toxigenic C. difficile strain 10465. A fulminant colitis results in the majority (˜95%) of animals and develops 1 to 2 days after the administration of C. difficile. Untreated, the colitis progresses rapidly and turns into severe colitis, hemorrhagic necrosis of the cecum and death. The compound of Example 1 was administered orally as a suspension at three dosage levels (10 mg/kg, 30 mg/kg and 100 mg/kg; n=10 per group). Vancomycin (50 mg/kg) was used as a control. Animals were treated once daily for 5 days and afterwards maintain under observation for an additional 21 days.
The animals were observed three times daily for morbidity and presence or absence of diarrhoea. The final endpoint of the study was survival. Animals judged to be in a moribund state [extended period of weight loss progressing to an emaciated state, anorexia for 24-48 h, prolonged lethargy (more than 3 days), signs of paralysis, skin erosions or trauma, hunched posture, distended abdomen] were euthanized by a single injection of sodium pentobarbital.

[10] = 10 mg/kg orally once daily for 5 days
[11] = 30 mg/kg orally once daily for 5 days

O=C(O)c1cn(C2CC2)c2cc(N3CCC(O)(COc4ccc(N5C[C@H](CO)OC5=O)cc4F)CC3)c(F)cc2c1=O [Example 1, 1-cyclopropyl-6-fluoro-7-{4-[2-fluoro-4-((R)-5-hydroxymethyl-2-oxo-oxazolidin-3-yl)-phenoxymethyl]-4-hydroxy-piperidin-1-yl}-4-oxo-1,4-dihydro-quinoline-3-carboxylic acid]
MIC [1]: 8 µg/mL (≈ 13.7 µM) | MIC [2]: 8 µg/mL (≈ 13.7 µM) | less activity than compound of Example 5 of WO 2005/058888 (R1) [3]: 4 times | less activity than compound of Example 5 of WO 2005/058888 (R1) [4]: 4 times | less activity than compound of Example 5 of WO 2005/058888 (R1) [5]: 8 times | less activity than compound of Example 5 of WO 2005/058888 (R1) [6]: 8 times | de novo toxin A production in supernatants [7]: inhibited de novo toxin A production | reduction of toxin B activity of culture supernatants [8]: > 90% | animals surviving the 5 day treatment period [9, 10]: all animals | animals surviving the relapse phase of 21 days after treatment [9, 10]: 40% | animals surviving the 5 day treatment period [9, 11]: all animals | animals surviving the relapse phase of 21 days after treatment without relapse [9, 11]: 80% | animals surviving the 5 day treatment period ([9]; 100 mg/kg orally once daily for 5 days): all animals
